Data on three molecules can be found in patent US6573286B1, “2-(2,6-disubstituted phenyl)-4-aryl-5-alkyl-1,3-oxazoline compounds” (Dow AgroSciences LLC, priority 2002, dated 2003).

Holding throughout (format): in vivo
Test [1] concerns cabbage looper (Trichoplusia ni). Put plainly: Insecticidal test for cabbage looper, treated cabbage leaf disc. The following applies: Trichoplusia ni, foliar, 120 h, 2nd instar larvae on dipped cabbage leaf discs, 5 days, read-out: CL: activity against cabbage looper (% Control rating). As to the method:
(§1) Insecticidal test for tobacco budworm (Heliothis virescens), beet armyworm (Spodoptera exigua), and cabbage looper (Trichoplusia ni). To prepare test solution, the test compound was formulated at 400 ppm in 7.5 mL of 2 acetone:1 tap water. 250 μL of the test solution was pipetted upon the surface of 8 mL of lepidopteran diet (modified Shorey) contained in each of five one-ounce plastic cups (one cup=1 replication). […] After air-drying, the treated leaf discs were placed individually into one-ounce plastic cups. Each dried, treated cotton cotyledon disc was infested with a 2nd instar tobacco budworm larva, and each cabbage leaf disc was infested with a 2nd instar cabbage looper larva. Cups containing the treated substrates and larvae were capped and then held in a growth chamber at 25° C., 50-55% RH, and 14 hr light:10 hr dark for 5 days.

For test [2], the system named is tobacco budworm (Heliothis virescens). Put plainly: Insecticidal test for tobacco budworm, treated cotton cotyledon leaf disc. The following applies: Heliothis virescens, foliar, 120 h, 2nd instar larvae on dipped cotton cotyledon discs, 5 days, read-out: TBW: activity against tobacco budworm (% Control rating). As to the method:
as §1

The subject of test [3] is two-spotted spider mite (Tetranychus urticae). Put plainly: Insecticidal test for two-spotted spider mite, ovicide method. Particulars: Tetranychus urticae, foliar, 144 h, ovicide method on cotton leaf discs, 6 days, read-out: SM: activity against two-spotted spider mite (% Control rating). Here is the method: Insecticidal test for two-spotted spider mite (Tetranychus urticae) Ovicide Method: Ten adult female two-spotted spider mites were placed on eight 2.2 cm leaf discs of cotton leaf, allowed to oviposit over 24 hours, and thereafter removed. […] Discs were placed on an agar substrate and held at 24° C. and 90% RH for 6 days.

In test [4] the test system is cotton aphid (Aphis gossypii). Put plainly: Insecticidal test for cotton aphid, sprayed squash cotyledons. Particulars: 50 ppm spray, graded after 3 days. As to the method: Insecticidal test for cotton aphid (Aphis gossypii) To prepare spray solutions, 1 mg of each test compound was dissolved into 1 mL of a 90:10 acetone:ethanol solvent. This 1 mL of chemical solution was added to 19 mL of water containing 0.05% Tween 20 surfactant to produce a 50 ppm spray solution. Squash cotyledons were infested with cotton aphid (all life stages) 16-20 hours prior to application of spray solution. The solution was sprayed on both sides of each infested squash cotyledon (0.5 mL×2 each side) with a sweeping action until runoff. The plants were allowed to air dry and held for 3 days in a controlled room at 26° C. and 40% RH after which time the test was graded. Grading was by actual count using a dissecting microscope and comparison of test counts to the untreated check.

For test [5], the system named is beet armyworm (Spodoptera exigua). Put plainly: Insecticidal test for beet armyworm, treated lepidopteran diet. The following applies: Spodoptera exigua, 120 h, 2nd instar larvae on treated diet, 5 days, read-out: BAW: activity against beet armyworm (% Control rating). Here is the method:
as §1

In test [6] the test system is Sweetpotato Whitefly (Bemisia tabacia). Put plainly: Insecticidal test for Sweetpotato Whitefly, sprayed cotton plants. The following applies: Bemisia, 312 h, 200 ppm spray, large nymphs counted after 13 days, read-out: WF: activity against whitefly (% Control rating). Here is the method:
Insecticidal test for Sweetpotato Whitefly (Bemisia tabacia) Four mg of each test compound were dissolved by adding 4 mL of a 90:10 acetone:ethanol solvent mixture to the vial containing the sample compound. This solution was added to 16 mL of water containing 0.05% Tween 20 surfactant to produce 20 mL of a 200 ppm spray solution. Five-week-old cotton plants reared in a greenhouse were stripped of all foliage except for the two uppermost true leaves that were greater than 5 cm in diameter. These plants were then placed into a laboratory colony of whiteflies for two days for oviposition by the colony females. All whiteflies were then removed from the test plants with pressurized air. The spray solution was then applied to the test plants with a hand-held syringe fitted with hollow cone nozzle. One mL spray solution was applied to each leaf top and bottom for a total of 4 mL per plant. Four replications of each test compound utilized a total of 16 mL spray solution. Plants were air dried and then placed in a holding chamber (28° C. and 60% RH) for 13 days. Compound efficacy was evaluated by counting, under an illuminated magnifying glass, the number of large nymphs (3rd-4th instar) per leaf. Percent control based on reduction of large nymphs of a test compound compared to solution-only (no test compound) sprayed plants is reported in Table 1-8.

SMILES strings stand for the structures. Some results are limits rather than exact numbers.

Take `C[C@@H]1OC(c2c(F)cccc2F)=N[C@@H]1c1ccc(-c2ccc(OC(F)(F)F)cc2)cc1` (stereo in doubt) [Compound 51, (4R,5S)-2-(2,6-difluorophenyl)-5-methyl-4-[4′-(trifluoromethoxy)-1,1′-biphenyl-4-yl]-4,5-dihydro-1,3-oxazole]: the pest or weed control at 400 ppm in test [1] fell in the range of 90 to 100%; in test [2], 80 to 89%; in test [5] it was 90 to 100%. Besides, the pest or weed control at 2.5 ppm in test [3] was in the range of 90 to 100%. The “CA: activity against cotton aphid (% Control rating)” value (“CA: activity … (% Control rating)” for short) in test [4] is on record as “F (less than 50)”.
Take `C[C@@H]1OC(c2c(F)cccc2F)=N[C@@H]1c1ccc(I)cc1` (racemic) [Compound 1, (4R,5S)- and (4S,5R)-4-(4-iodophenyl)-2-(2,6-difluorophenyl)-5-methyl-4,5-dihydro-1,3-oxazole]: the pest or weed control at 400 ppm in test [1] is 60 to 69%; in test [2] it was less than 50%; in test [5], less than 50%. Further, the pest or weed control at 2.5 ppm in test [3] was 90 to 100%. The “CA: activity … (% Control rating)” value in test [4] was “A (90-100)”. Further, in test [6], the pest or weed control at 200 ppm was 60 to 69%.
On to `C[C@H]1OC(c2c(F)cccc2F)=N[C@@H]1c1ccc(I)cc1` (racemic) [Compound 22, (4R,5R)- and (4S,5S)-4-(4-iodophenyl)-2-(2,6-difluorophenyl)-5-methyl-4,5-dihydro-1,3-oxazole], for which the pest or weed control at 2.5 ppm in test [3] lay within 90 to 100%. Moreover, in test [4], the “CA: activity … (% Control rating)” value is on record as “A (90-100)”.
